Data on 2 compounds can be found in patent publication US20240010616A1, “SIPONIMOD SALTS AND COCRYSTALS” (Synthon B.V., priority 2020, published 2024).

The nature of data set [1]: Water activity measured by DVS (weight difference between 0 and 90% relative humidity). The data set is classed as physicochemical. Conditions: 25° C., 0-90-0% relative humidity, step 10%; compared with prior art Siponimod Fumarate (1:0.5), Form A. The method, then:
Water activity of the prior art form and solid forms of presented invention was measured: DVS machine ProUmid SPX-1μ Advance, 25° C., 0-90-0% relative humidity, step 10%, maximal time per step 10 hours. Equilibrium bandwidth 0.05%/60 minutes.
Water activity: a difference between the weights of the sample in 0 and 90% of relative humidity at a constant temperature. It corresponds to the amount of water taken by the tested compound when the humidity changes from 0 to 90% at a constant temperature. The higher water activity the more water can be taken by the compound and that might result in lower purity of the compound because hydrolysis impurities can be formed.

Data set [2] can be described thus: Comparison of crystals (SEM pictures): crystal size and proneness to charging. The data set is classed as physicochemical. To be noted: compared with prior art fumarate salt; for Proneness of crystals to charging: relates to processability into final forms (tablets); for Crystal size: crystals depicted in FIGS. 17 to 28. The protocol: • DCS patterns were obtained using the following conditions: 10° C./min->250° C. • Pictures of crystals were obtained by SEM Jeol JCM-6000. • Nuclear magnetic resonance spectroscopy (NMR) was performed using Avance III 400 MHz NMR spectrometer.
Prior art fumarate salt was prepared according to procedure described in WO2010/080409. In FIGS. 17 to 22 the crystals of prior art salt (FIG. 22) and crystals of salts of the presented invention (FIGS. 17 to 21) are depicted.
The crystals of solid Form 11 of cocrystal of Siponimod with adipic acid (2:1) are depicted in FIGS. 25 to 27. The crystal of Siponimod fumarate, Form A, are depicted in FIG. 28.

“Also recorded” adds a separate entry of the source.

With `CCc1cc(/C(C)=N/OCc2ccc(C3CCCCC3)c(C(F)(F)F)c2)ccc1CN1CC(C(=O)O)C1.CCc1cc(/C(C)=N/OCc2ccc(C3CCCCC3)c(C(F)(F)F)c2)ccc1CN1CC(C(=O)O)C1.O=C(O)CCCCC(=O)O` [Form 11], the Water activity entry in data set [1] was “lower water activity than Siponimod fumarate, Form A; also recorded: better comparing to prior art forms”. For the same compound, in data set [2], the “Proneness of crystals to charging” value is reported as “less prone to charging” and the Crystal size result is reported as “much bigger than crystals of Form A”.
As to `CCc1cc(/C(C)=N/OCc2ccc(C3CCCCC3)c(C(F)(F)F)c2)ccc1CN1CC(C(=O)O)C1.CCc1cc(/C(C)=N/OCc2ccc(C3CCCCC3)c(C(F)(F)F)c2)ccc1CN1CC(C(=O)O)C1.O=C(O)/C=C/C(=O)O` [Prior art fumarate salt, reference compound], in data set [2], the “Proneness of crystals to charging” value is “prone to charging” and the Crystal size result is reported as “small crystals”.
